Columns and labels:
motilin receptors = molecular target: T1, motilin receptors (Oryctolagus cuniculus, UniProt G1T803); assay: Binding capacity to motilin receptors: displacement of 125-iodine-labelled motilin, rabbit antrum crude membrane preparation; settings: rabbit antrum crude membrane fraction, iodinated motilin 50 pM, 30° C., 60 minutes; read-out: pIC50 value (50% inhibition of the specific binding of the iodinated motilin to the motilin receptors) (converted)
T1 construct: fraction of a tissue homogenate from rabbit antrum; from tissue; host or cells: rabbit antrum, mucosa removed, crude membrane preparation
T1 sequence (G1T803 1-400): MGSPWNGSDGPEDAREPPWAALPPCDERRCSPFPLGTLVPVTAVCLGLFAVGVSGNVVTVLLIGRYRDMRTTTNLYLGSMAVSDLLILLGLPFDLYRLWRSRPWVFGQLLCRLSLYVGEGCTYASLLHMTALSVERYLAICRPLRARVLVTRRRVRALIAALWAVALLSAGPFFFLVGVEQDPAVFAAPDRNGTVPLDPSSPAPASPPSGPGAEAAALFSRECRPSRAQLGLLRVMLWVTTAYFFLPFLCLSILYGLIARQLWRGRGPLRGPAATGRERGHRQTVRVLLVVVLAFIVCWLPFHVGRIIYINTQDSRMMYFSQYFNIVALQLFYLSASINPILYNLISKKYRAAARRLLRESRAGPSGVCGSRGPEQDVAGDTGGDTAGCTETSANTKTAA
Experimental: 1. Determination of the binding capacity of the test substances to motilin receptors.
The affinity of the compounds of the formula I for motilin receptors is measured in vitro on a fraction of a tissue homogenate from rabbit antrum. The displacement of radioactively labelled iodinated motilin from motilin receptor binding by the test substances is determined.
The receptor binding studies were carried out by a modification of the method of Borman et al. (Regulatory Peptides 15 (1986), 143-153). To prepare the ^125 iodine-labelled motilin, motilin is iodinated enzymatically using lactoperoxidase in a known manner, for example analogously to the method described by Bloom et al. (Scand. J. Gastroenterol. 11 (1976) 47-52). […]
For the binding test, 200 μl of the crude membrane fraction (0.5-1 mg of protein) in 400 μl of a buffer solution A (50 mM tris-HCl buffer, 1.5% BSA, 10 mM MgCl2, pH 8.0) were incubated with 100 μl of iodinated motilin diluted in buffer solution B (10 mM tris-HCl buffer, 1% BSA, pH 8) (final concentration 50 pM) at 30° C. for 60 minutes. […] The residue obtained as pellet after the centrifugation was washed with buffer solution B and counted in a gamma counter. […] From this the corresponding pIC50 value was calculated.

beagle dogs [1] = assay: In vivo determination of the effect on the rate of gastric emptying
Experimental: 2. In vivo determination of the effect of the substances on the rate of gastric emptying.
The determination of the rate of gastric emptying was carried out on beagle dogs which, before the test, had undergone surgical establishment of an esophagus fistula and implantation of a duodenal cannula. 15 minutes after duodenal administration of the test substances, the fasting conscious dogs were given 285 g of a semisolid caloric test meal through the esophagus fistula. The contents emptied from the stomach were collected through the duodenal cannula at 15-minute intervals. From the collected amounts of stomach contents, the time within which 50% emptying of the stomach takes place was calculated. The time is reported as measure of gastric emptying.

beagle dogs [2] = assay: In vivo determination of the effect on the resting tone of the esophagus sphincter (pull-through manometry); settings: conscious fasting beagle dogs, 0.251 μmole/kg intraduodenally
Experimental: 3. In vivo determination of the effect of the substances on the resting tone of the esophagus sphincter.
This determination is carried out on trained, conscious, fasting beagle dogs which, before the test, have each been given an esophagus fistula and a duodenal cannula. The pressure of the lower esophagus sphincter is measured by means of a perfused catheter system which has a lateral opening and which is connected to a pressure transducer and a recorder. The catheter is passed through the esophagus fistula into the stomach and then slowly withdrawn manually (=pull-through manometry). A peak is recorded when the catheter part with the lateral opening passes through the high-pressure zone of the lower esophagus sphincter. The pressure in mm Hg is determined from this peak.
In this way, initially the basal pressure of the esophagus sphincter is determined as control value. Subsequently, the test substance is administered intraduodenally and, after 15 minutes, the pressure at the lower esophagus sphincter is measured at 2-minute intervals for a period of 46 minutes. The increase in the pressure after administration of test substance compared with the previously determined basal pressure is calculated.

SMILES: CC[C@@H](O)[C@@](C)(O)[C@@H]1OC(=O)[C@H](C)[C@@H](O[C@H]2C[C@@](C)(OC)[C@@H](O)[C@H](C)O2)[C@H](C)[C@@H](O[C@@H]2O[C@H](C)C[C@H](N(C)C(C)C)[C@H]2O)[C@@]2(C)CC(C)=C(O2)[C@@H]1C [Example 1, [2R,3R(2R',3R'),6R,7S,8S,9R,10R]-3-(2',3'-dihydroxypent-2'-yl)-7-[(2,6-dideoxy-3-C-methyl-3-0-methyl-α-L-ribo-hexopyranosyl)-oxy]-9-[(3,4,6-trideoxy-3-(N-methyl-N-isopropylamino)-β-D-xylo-hexopyranosyl)-oxy]-2,6,8,10,12-pentamethyl-4,13-dioxabicyclo[8.2.1]tridec-12-en-5-one]
- IC50 (motilin receptors): 4.79 nM
- effect on gastric emptying (in words) (beagle dogs [1]; beagle dogs, dose of 0.46 μmole/kg, duodenal administration): distinct stimulation of gastric emptying
- time for 50% emptying of the stomach (beagle dogs [1]; fasting conscious beagle dogs, 0.46 μmole/kg duodenal, 15 minutes before semisolid caloric test meal, control animal group 46 minutes): 27 min
- change of basal tone of the esophagus sphincter (beagle dogs [2]; compared with basal pressure): more than doubled
- persistence of the effect on esophagus sphincter tone (beagle dogs [2]; throughout duration of the test): ≥ 45 min
